Read-outs that look alike come from different tables or passages of the source. Marks after values point to notes of the source that are not given here. Non-standard residues stand in square brackets, D forms with d. Residues, ends and D or L forms follow the SMILES beside them. Trp(6-Cl) = N[C@@H](Cc1c[nH]c2cc(Cl)ccc12)C(=O)O; Pmp = N[C@@H](Cc1ccc(CP(=O)(O)O)cc1)C(=O)O; Ac3c = NC1(C(=O)O)CC1; Aib = CC(C)(N)C(=O)O
Tests used:
[1] = molecular target: T1, HDM2 (Homo sapiens, UniProt Q00987); experiment: Fluorescence polarisation competitive HDM2 binding assay
T1 construct: Recombinant HDM2 (1.5 μg per well) in TBS-BSA buffer
Method: This was carried out using a 96-well microtiter plate (Costar) format. Recombinant HDM2 (1.5 μg per well) in TBS-BSA buffer (50 mM Tris pH 7.4, 150 mM NaCl, and 0.1% BSA) was incubated for 5 min at room temperature in the presence of serially diluted test compound (in TBS-BSA buffer with a final concentration of 5% DMSO). Fluorescently labelled p53-derived peptide (fluorescein-[…]NH2, 0.2 μM) was added to each well and the plate was incubated at room temperature for 45 min. The fluorescence polarisation (excitation 485 nm, emission 520 nm) of the peptide was measured. IC50 values were calculated from dose-response curves.
(§1) The fluorescence polarisation competitive HDM2 binding assay described in Example 3 was used. Furthermore, the anti-proliferative potency of the compounds against three human tumour cell lines with different genetic make-up was also determined. […] The cell lines used were as follows: AGS, gastric adenocarcinoma, wild-type p53; H1299, large cell lung carcinoma, p53 null, low HDM2; SJSA-1, primitive multipotential bone sarcoma, wild-type p53, overexpressed HDM2.

[2] = tested on: p53; experiment: p53 reporter gene assay (U2OS-derived luciferase reporter cell line); details: for Fold induction of luciferase activity: compared to basal luciferase activity, 16-h time point, at concentration of maximal induction; for Concentration (test compound concentration at which the p53 induction was maximal): p53 reporter, U2OS-derived cell line
Method: A dual assay assessing both cell viability and p53 response was employed. A U2OS-derived cell line stably transfected with a p53 response element and a luciferase reporter gene was created. […] After seeding of cells into 96-well tissue culture plates, treatment with test compounds, and incubation for the desired duration, the cell proliferation reagent WST-1 (Roche Molecular Biochemicals) was used to determine cell viability. The Bright-Glo™ Luciferase Assay System (Promega) was used to measure luciferase activity. The data from the cell viability assay was used to normalise data from the luciferase assay.

[3] = tested on: AGS; experiment: 72-h MTT cytotoxicity assay, AGS; format: cell-based; details: Homo sapiens, 72-h MTT, Table 1, read-out: IC50 Anti-proliferative effect on cell line AGS
Method: as §1
(§2) Representative bisarylsulfonamide compounds were tested on a panel of transformed and non-transformed human cell lines, using a standard 72-h MTT cytotoxicity assay [Haselsberger K et al, ibid].

[4] = tested on: H1299; experiment: 72-h MTT cytotoxicity assay, H1299; format: cell-based; details: Homo sapiens, NCI-H1299; 72-h MTT; Table 1; read-out: IC50 Anti-proliferative effect on cell line H 1299
Method: as §1, §2

[5] = tested on: SJSA-1; experiment: 72-h MTT cytotoxicity assay, SJSA-1; format: cell-based; details: Homo sapiens, SJSA-1; 72-h MTT; Table 1; read-out: IC50 Anti-proliferative effect on cell line SJSA-1
Method: as §1, §2

[6] = fluorescence polarisation assay, Table 3, read-out: In vitro competitive HDM2 binding assay IC50
[7] = fluorescence polarisation format, Table 1, read-out: IC50 In vitro competitive HDM2 binding assay

T1 sequence (Q00987 whole entry): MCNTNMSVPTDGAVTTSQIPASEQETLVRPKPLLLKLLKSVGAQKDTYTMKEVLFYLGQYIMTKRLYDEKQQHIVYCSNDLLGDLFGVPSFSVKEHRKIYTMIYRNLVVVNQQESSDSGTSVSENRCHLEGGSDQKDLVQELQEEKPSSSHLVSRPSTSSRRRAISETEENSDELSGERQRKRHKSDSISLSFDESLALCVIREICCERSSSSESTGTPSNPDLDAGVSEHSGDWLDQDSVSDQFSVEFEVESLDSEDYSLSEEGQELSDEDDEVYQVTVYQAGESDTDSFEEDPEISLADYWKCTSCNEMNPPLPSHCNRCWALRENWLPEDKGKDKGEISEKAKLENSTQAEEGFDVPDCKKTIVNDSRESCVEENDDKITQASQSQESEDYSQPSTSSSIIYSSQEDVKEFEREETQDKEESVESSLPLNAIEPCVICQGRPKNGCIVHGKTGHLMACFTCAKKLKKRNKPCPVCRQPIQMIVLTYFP

Row | SMILES | IC50 [1, 7] | IC50 [3] | IC50 [4] | IC50 [5] | other results
1 | O=S(=O)(Nc1ccc(F)cc1)c1cc(Br)c(Cl)s1 [Compound 4, 4-Bromo-5-chlorothiophene-2-sulfonic acid (4-fluorophenyl)amide] | 378 µM | – | – | – | IC50 [1, 6]: 378 µM; Fold induction of luciferase activity [2]: <2 fold; Concentration (test compound concentration at which the p53 induction was maximal) [2]: 100^e μM
2 | O=S(=O)(Nc1ccc(C(F)(F)F)cc1)c1cc(S(=O)(=O)Nc2ccc(C(F)(F)F)cc2)c(Cl)s1 [Compound 33, 5-Chlorothiophene-2,4-disulfonic acid bis-[(4-trifluoro-methyl-phenyl)-amide]] | 65 ± 5 µM | 68 ± 1 µM | 69 ± 1 µM | > 100 µM | –
3 | O=[N+]([O-])c1cc(S(=O)(=O)Nc2ccc(C(F)(F)F)cc2)ccc1Cl [Compound 35, 4-Chloro-3-nitro-N-(4-trifluoromethylphenyl)benzenesulfonamide] | 192 ± 8 µM | 13 ± 3.3 µM | 9.3 ± 1.7 µM | 26.5 ± 1.6 µM | –
4 | O=S(=O)(Nc1cc(C(F)(F)F)cc(C(F)(F)F)c1)c1cnc(Cl)c(Br)c1 [Compound 42, 5-Bromo-6-chloropyridine-3-sulfonic acid (3,5-bis-trifluoromethylphenyl)amide] | 278 ± 50 µM | 30 ± 7 µM | 32 ± 7 µM | 65 ± 18 µM | –
5 | Cn1ncc(-c2ccc(S(=O)(=O)Nc3cc(C(F)(F)F)cc(C(F)(F)F)c3)s2)c1C(F)(F)F [Compound 43, 5-(1-Methyl-5-trifluoromethyl-1H-pyrazol-4-yl)-thiophene-2-sulfonic acid (3,5-bis-trifluoromethylphenyl)amide] | 133 ± 11 µM | 20.9 ± 1 µM | 18 ± 0.8 µM | 33.7 ± 0.3 µM | –
6 | O=[N+]([O-])c1cc(S(=O)(=O)Nc2cc(C(F)(F)F)cc(C(F)(F)F)c2)sc1Cl [Compound 44, 5-Chloro-4-nitrothiophene-2-sulfonic acid (3,5-bis-trifluoromethyl-phenyl)-amide] | 25.4 ± 0.2 µM | 10 µM | 14 ± 2 µM | 19 ± 3 µM | –
7 | O=[N+]([O-])c1cc(S(=O)(=O)Nc2cc(Cl)cc(Cl)c2)ccc1Cl [Compound 47, 4-Chloro-N-(3,5-dichlorophenyl)-3-nitro-benzenesulfonamide] | 234 ± 37 µM | 23 ± 2 µM | 18 ± 8 µM | 37 ± 6 µM | –
8 | CN(c1ccc(Cl)cc1)S(=O)(=O)c1cc([N+](=O)[O-])c(Cl)s1 [Compound 51, 5-Chloro-4-nitrothiophene-2-sulfonic acid (4-chloro-phenyl)-methylamide] | 5.9 ± 0.7 µM | 11.3 ± 1 µM | 17.4 ± 3.8 µM | 15.6 µM | –
9 | CN(Cc1ccc(C(F)(F)F)cc1)S(=O)(=O)c1cc([N+](=O)[O-])c(Cl)s1 [Compound 52, 5-Chloro-4-nitrothiophene-2-sulfonic acid methyl-(4-trifluoromethylbenzyl)amide] | 10.7 ± 0.2 µM | 23.3 ± 1.4 µM | 28.5 ± 1.9 µM | 27.5 ± 1.3 µM | –
10 | O=[N+]([O-])c1cc(S(=O)(=O)NCc2ccc(Cl)cc2)sc1Cl [Compound 56, 5-Chloro-4-nitro-thiophene-2-sulfonic acid 4-chloro-benzylamide] | 24.8 ± 5.4 µM | 4.3 ± 0.6 µM | 6.3 ± 1.9 µM | 9.3 ± 2.7 µM | –
11 | O=[N+]([O-])c1cc(S(=O)(=O)N(Cc2cccc(C(F)(F)F)c2)c2ccc(Cl)cc2)sc1Cl [Compound 67, 5-Chloro-4-nitro-thiophene-2-sulfonic acid (4-chloro-phenyl)-(3-trifluoromethyl-benzyl)-amide] | 8.5 ± 3.2 µM | 6.7 ± 0.9 µM | 12 ± 1 µM | 11.8 ± 1.6 µM | –
12 | CC(=O)Sc1sc(S(=O)(=O)Nc2ccc(Cl)cc2)cc1[N+](=O)[O-] [Compound 72, Thioacetic acid S-[5-(4-chloro-phenylsulfamoyl)-3-nitro-thiophen-2-yl] ester] | 16.2 µM | 61 µM | – | – | –
13 | Cc1sc(S(=O)(=O)Nc2ccc(Cl)cc2)cc1[N+](=O)[O-] [Compound 73, 5-Methyl-4-nitro-thiophene-2-sulfonic acid (4-chloro-phenyl)-amide] | > 167 µM | 53 µM | 66 µM | – | –
14 | O=[N+]([O-])c1cc(S(=O)(=O)N(Cc2ccc(C(F)(F)F)cc2)Cc2cccc(C(F)(F)F)c2)sc1Cl [Compound 75, 5-Chloro-4-nitro-thiophene-2-sulfonic acid (3-trifluoro-methyl-benzyl)-(4-trifluoromethyl-benzyl)-amide] | 3.5 ± 10 µM | 9 µM | 16 µM | 18 µM | –
15 | O=[N+]([O-])c1cc(S(=O)(=O)NCCc2c[nH]c3ccc(Cl)cc23)ccc1Cl [Compound 81, 4-Chloro-N-[2-(5-chloro-1H-indol-3-yl)-ethyl]-3-nitro-benzenesulfonamide] | 311 ± 21 µM | 29 ± 2 µM | 39 ± 6 µM | 51 ± 1 µM | –
16 | COc1ccc(S(=O)(=O)Nc2cc(C(F)(F)F)cc(C(F)(F)F)c2)cc1Cl [Compound 104, N-(3,5-Bis-trifluoromethyl-phenyl)-3-chloro-4-methoxy-benzene-sulfonamide] | 151 ± 26 µM | 25 µM | – | – | –
17 | O=S(=O)(Nc1cc(C(F)(F)F)cc(C(F)(F)F)c1)c1cc2ccccc2s1 [Compound 120, Benzo[b]thiophene-2-sulfonic acid (3,5-bis-trifluoromethyl-phenyl)-amide] | 193 ± 12 µM | – | – | – | –
18 | O=S(=O)(Nc1ccc(Cl)cc1)c1ccc2nsnc2c1 [Compound 121, Benzo[1,2,5]thiadiazole-5-sulfonic acid (4-chloro-phenyl)-amide] | 314 ± 29 µM | – | – | – | –
19 | O=S(=O)(Nc1cc(C(F)(F)F)cc(C(F)(F)F)c1)c1ccc2nsnc2c1 [Compound 122, Benzo[1,2,5]thiadiazole-5-sulfonic acid (3,5-bis-trifluoromethyl-phenyl)-amide] | 165 ± 8 µM | – | – | – | –
20 | O=S(=O)(Nc1ccc(C(F)(F)F)cc1)c1ccc2nsnc2c1 [Compound 123, Benzo[1,2,5]thiadiazole-5-sulfonic acid (4-trifluoromethyl-phenyl)-amide] | 329 ± 42 µM | – | – | – | –
21 | O=S(=O)(Nc1cc(C(F)(F)F)cc(C(F)(F)F)c1)c1ccc(-c2ccccn2)s1 [Compound 124, 5-Pyridin-2-yl-thiophene-2-sulfonic acid (3,5-bis-trifluoromethyl-phenyl)-amide] | 265 ± 64 µM | – | – | – | –
22 | O=S(=O)(Nc1ccc(Cl)cc1)c1cc(Br)c(Br)s1 [Compound 125, 4,5-Dibromo-thiophene-2-sulfonic acid (4-chloro-phenyl)-amide] | 198 ± 17 µM | – | – | – | –
23 | O=S(=O)(Nc1ccc(C(F)(F)F)cc1)c1cc(Br)c(Br)s1 [Compound 126, 4,5-Dibromo-thiophene-2-sulfonic acid (4-trifluoromethyl-phenyl)-amide] | 163 ± 27 µM | – | – | – | –
24 | O=S(=O)(NCc1ccc(F)cc1)c1cc(Cl)c(O)c(Cl)c1 [Compound 127, 3,5-Dichloro-N-(4-fluoro-benzyl)-4-hydroxy-benzenesulfonamide] | 325 ± 24 µM | – | – | – | –
25 | O=S(=O)(Nc1cc(C(F)(F)F)cc(C(F)(F)F)c1)c1c(Cl)cccc1Cl [Compound 128, N-(3,5-Bis-trifluoromethyl-phenyl)-2,6-dichloro-benzenesulfonamide] | 134 ± 28 µM | 53 µM | – | – | –
26 | COc1ccc(NS(=O)(=O)c2cc([N+](=O)[O-])c(Cl)s2)c(C)c1 [Compound 129, 5-Chloro-4-nitro-thiophene-2-sulfonic acid (4-methoxy-2-methyl-phenyl)-amide] | 278 ± 19 µM | – | – | – | IC50 [1, 6]: 278 ± 19 µM; Fold induction of luciferase activity [2]: 5 fold; Concentration (test compound concentration at which the p53 induction was maximal) [2]: 100 µM
27 | O=[N+]([O-])c1cc(S(=O)(=O)Nc2ccc(Cl)cc2)sc1N1CCCC(O)C1 (stereo not drawn) [Compound 130, 5-(3-Hydroxy-piperidin-1-yl)-4-nitro-thiophene-2-sulfonic acid (4-chloro-phenyl)-amide] | 64 ± 1 µM | – | – | – | –
28 | O=[N+]([O-])c1ccc(NS(=O)(=O)c2cc([N+](=O)[O-])c(Cl)s2)cc1 [Compound 131, 5-Chloro-4-nitro-thiophene-2-sulfonic acid (4-nitro-phenyl)-amide] | 41 ± 4 µM | – | – | – | –
29 | CSCC[C@H](NC(=O)[C@@H](N)Cc1ccccc1)C(=O)NC(C)(C)C(=O)N[C@@H](Cc1ccc(CP(=O)(O)O)cc1)C(=O)N[C@@H](Cc1c[nH]c2cc(Cl)ccc12)C(=O)N[C@@H](CCC(=O)O)C(=O)NC1(C(=O)N[C@@H](CC(C)C)C(N)=O)CC1 [Control, H-Phe-Met-Aib-Pmp-(6-Cl-Trp)-Glu-Ac3c-Leu-NH2, reference compound] (H-FM[Aib][Pmp][Trp(6-Cl)]E[Ac3c]L-NH2) | – | – | – | – | IC50 ([1]; In vitro competitive HDM2 binding assay IC50, fluorescence polarisation assay, Table 3): 0.19 µM; Fold induction of luciferase activity [2]: 4 fold; Concentration (test compound concentration at which the p53 induction was maximal) [2]: 150 to 200 µM

Source: patent US20050215548A1 (Cyclacel Limited, priority 2002, published 2005)
